Data set [1] can be described thus: Bioavailability (dose 20 mg/kg). The conditions noted are these: eutheria, in vivo. Format: ADME, organism-based.
The test system of data set [2] is NCI/ADR-RES. Put plainly: Tested for in vitro cytotoxic activity against breast MCF-7/ADR human cancer cell lines. Format: functional.
The test system of data set [3] is M14. Put plainly: Tested for in vitro cytotoxic activity against melanoma M14 human cancer cell lines. Type of data set: functional.
The test system of data set [4] is NCI-H522. Put plainly: Tested for in vitro cytotoxic activity against lung H522 human cancer cell lines. Type of data set: functional.
The test system of data set [5] is DU-145. Kind of data set: Tested for in vitro cytotoxic activity against prostate DU145 human cancer cell lines. Format: functional.
For data set [6], the system named is A498. Kind of data set: Tested for in vitro cytotoxic activity against renal A498 human cancer cell lines. Type of data set: functional.
The subject of data set [7] is SK-OV-3. Put plainly: Tested for in vitro cytotoxic activity against ovarian SKOV3 human cancer cell lines. Type of data set: functional.
The test system of data set [8] is SW-620. Put plainly: Tested for in vitro cytotoxic activity against colon SW620 human cancer cell lines. Type of data set: functional.
In data set [9] the test system is U-251. Kind of data set: Tested for in vitro cytotoxic activity against CNS U251 human cancer cell lines. Type of data set: functional.
In data set [10] the test system is Mus musculus. Put plainly: Maximum mean weight loss on 24th day after administration of 40 mg/kg daily for 10 days(total 400 mg/kg). Format: functional.
The species entered for data set [11] is Mus musculus. Kind of data set: Antitumor activity after 24 days was determined. Type of data set: functional.
For data set [12], the species on record is Mus musculus. Put plainly: Antitumor activity after 17 days was determined. Type of data set: functional.
The test system of data set [13] is Mus musculus. Kind of data set: Maximum mean weight loss on 26th day after administration of 40 mg/kg daily for 10 days(total 400 mg/kg). Format: functional.

The values below come from ChEMBL document CHEMBL1134884, “Novel indolo[2,1-b]quinazoline analogues as cytostatic agents: synthesis, biological evaluation and structure-activity relationship” (Bioorg Med Chem Lett, 2002).

A word on the bioavailability: it is the share of a dose that reaches the circulation, judged against a reference dose that is usually intravenous. High values mean much systemic uptake, low ones little systemic uptake. Broadly, the GI50 is the concentration at which growth is held to half of that of the control. Low values mean greater sensitivity of the cells, high ones lower sensitivity of the cells. The molecule `CN(C)CCO/N=C1\c2ccccc2-n2c1nc1ccccc1c2=O` had a bioavailability in data set [1] of 14%. Further, the GI50 was determined as 0.4 µM in data set [2]; 2 µM in data set [3]; 0.7 µM in data set [4]; 2.5 µM in [5]; 0.6 µM in data set [6]; 2 µM in data set [7]. The GI50 turned out to be 0.75 µM in [8] and 0.8 µM in data set [9]. For the same molecule, in data set [10], the “Max mean weight loss” value is recorded as 14%. In data set [11], the “Optimum T/C” value is reported as 75%.
Turning to `O=C1c2cc(Cl)ccc2-n2c1nc1ccccc1c2=O`, the GI50 in data set [2], in data set [3], in data set [4], in data set [5], in data set [6] and in data set [7] was greater than 100 µM throughout. In addition, the GI50 in data set [8] and in data set [9] was greater than 100 µM in each case.
Turning to `CC1(O)c2ccccc2-n2c1nc1ccccc1c2=O` (stereo unspecified), the GI50 in data set [2], in [3], in [4], in [5], in data set [6] and in data set [7] was greater than 100 µM in each case. Moreover, the GI50 in data set [8] and in data set [9] was greater than 100 µM throughout.
`O=C1c2ccccc2-n2c1nc1ccc([N+](=O)[O-])cc1c2=O`: the GI50 in data set [2], in data set [3], in data set [4], in data set [5], in data set [6] and in data set [7] was greater than 100 µM each time. Also, the GI50 in [8] and in data set [9] was greater than 100 µM each time.
`CCC(=O)Nc1ccc2c(c1)C(=O)c1nc3ccccc3c(=O)n1-2`: the GI50 is 20 µM in [2]; 10 µM in [3]; 18 µM in data set [4]; 10 µM in data set [5]; 7 µM in data set [6]; 8 µM in [7]. The GI50 was 22 µM in [8] and greater than 100 µM in data set [9].
As for `O=C1c2cc([N+](=O)[O-])ccc2-n2c1nc1ccccc1c2=O`, the GI50 was 1 µM in data set [2]; 15 µM in data set [3]; 4.8 µM in data set [4]; 8 µM in [5]; 2 µM in [6]; 25 µM in data set [7]. Besides, the GI50 came to 25 µM in [8] and 4.5 µM in data set [9].
On to `Nc1ccc2nc3n(c(=O)c2c1)-c1ccccc1C3=O`, for which the GI50 in data set [2] was 40 µM; in [3], 60 µM; in data set [4], 60 µM; in [5], 60 µM; in data set [6], 80 µM; in data set [7] it was 40 µM. In addition, the GI50 in data set [8] turned out to be 60 µM; in data set [9], 70 µM.
Take `CS(=O)(=O)Nc1ccc2c(c1)C(=O)c1nc3ccccc3c(=O)n1-2`: the GI50 in [2], in data set [3], in data set [4], in data set [5], in [6] and in [7] was greater than 100 µM throughout. Moreover, the GI50 in data set [8] and in data set [9] was greater than 100 µM each time.
Regarding `O=c1c2ccccc2nc2n1-c1ccccc1/C2=N\OCCCN1CCCC1`, the GI50 came out at 5 µM in [2]; 6 µM in data set [3]; 4 µM in data set [4]; 5 µM in [5]; 7 µM in data set [6]; 4 µM in [7]. The GI50 was found to be 4.5 µM in [8] and 6 µM in data set [9].
For `C=CC1(O)c2ccccc2-n2c1nc1ccccc1c2=O` (stereo unspecified), the GI50 in data set [2] came to 20 µM; in [3] it was 8 µM; in data set [4], 15 µM; in data set [5], 10 µM; in data set [6], 12 µM; in data set [7], 6 µM. In addition, the GI50 in data set [8] came to 10 µM; in data set [9] it was 12 µM.
For `O=C1c2ccccc2-n2c1nc1ccccc1c2=O` [TRYPTANTHRIN], the GI50 in data set [2] turned out to be 30 µM; in [3] it was 15 µM; in [4] it was 15 µM; in data set [5] it was 0.4 µM; in data set [6], 0.95 µM; in [7], 2.5 µM. Also, the 50% growth inhibitory concentration (GI50) in [8] came to 5 µM; in data set [9] it was 100 µM.
With `Cc1ccc2c(c1)C(=O)c1nc3ccccc3c(=O)n1-2`, the GI50 in data set [2] is 0.1 µM; in [3], 60 µM; in data set [4], 0.15 µM; in data set [5], greater than 100 µM; in [6], 60 µM; in data set [7], greater than 100 µM. Moreover, the figures for the GI50 in [8] and in data set [9] were greater than 100 µM and 20 µM, respectively.
Consider `CCCC(=O)Nc1ccc2c(c1)C(=O)c1nc3ccccc3c(=O)n1-2`, for which the GI50 in data set [2] was 10 µM; in [3] it was 18.5 µM; in [4], 18.2 µM; in [5], 20 µM; in data set [6], 20 µM; in data set [7], 6 µM. In addition, the GI50 amounted to 10.5 µM in data set [8] and 12 µM in data set [9].
Consider `CN(C)CCCO/N=C1\c2ccccc2-n2c1nc1ccccc1c2=O`, for which the GI50 in data set [2] came out at 7.5 µM; in data set [3], 5 µM; in data set [4] it was 0.6 µM; in data set [5], 3.5 µM; in data set [6], 4 µM; in data set [7] it was 2 µM. Also, the GI50 in [8] turned out to be 4 µM; in data set [9] it was 0.7 µM.
As to `O=Nc1c2ccccc2n2c(O)c3ccccc3nc12`, the GI50 was 15 µM in [2]; 40 µM in [3]; 50 µM in data set [4]; 50 µM in data set [5]; 60 µM in [6]; 30 µM in [7]. For the same molecule, the GI50 in [8] was 8 µM; in data set [9], 15 µM.
For the molecule `O=c1c2ccccc2nc2n1-c1ccccc1/C2=N\OCCO`, the GI50 in [2] came out at 0.01 µM; in data set [3] it was 30 µM; in data set [4] it was 7 µM; in data set [5], 3 µM; in [6], 40 µM; in data set [7], 20 µM. The GI50 is 20 µM in [8] and 1 µM in data set [9].
Regarding `O=c1c2ccccc2nc2n1-c1ccccc1C2(O)OCCOc1ccccc1` (stereo unspecified), the GI50 in data set [2], in [3], in data set [4], in data set [5], in data set [6] and in data set [7] was greater than 100 µM each time. In addition, the GI50 in data set [8] and in data set [9] was greater than 100 µM each time.
In the case of `CN(C)CCO/N=C1\c2cc([N+](=O)[O-])ccc2-n2c1nc1ccccc1c2=O`, the GI50 in data set [2] was 4 µM; in data set [3], 7.5 µM; in data set [4], 9 µM; in data set [5] it was greater than 100 µM; in data set [6], greater than 100 µM; in data set [7], 9 µM. The GI50 in [8] came to 0.75 µM; in data set [9] it was 7.5 µM.
For the molecule `Nc1ccc2c(c1)C(=O)c1nc3ccccc3c(=O)n1-2`, the GI50 came out at 5 µM in data set [2]; 5 µM in data set [3]; 5 µM in [4]; 2 µM in [5]; 3 µM in data set [6]; 5 µM in data set [7]. The figures for the GI50 in [8] and in data set [9] were 4.8 µM and 0.7 µM, respectively.
On to `O=c1c2ccccc2nc2n1-c1ccccc1/C2=N\OCCN1CCCC1`, for which the GI50 in data set [2] was 6 µM; in [3], 2 µM; in data set [4], 3 µM; in [5], 3 µM; in data set [6], 5 µM; in data set [7], 3 µM. In addition, the GI50 stood at 0.85 µM in data set [8] and 25 µM in data set [9].
`O=C(/C=C/c1ccccc1)O/N=C1\c2ccccc2-n2c1nc1ccccc1c2=O`: the GI50 in data set [2] was 7.5 µM; in data set [3], 90 µM; in data set [4], 45 µM; in data set [5], greater than 100 µM; in data set [6], 10 µM; in [7], 6 µM. Further, the results for the GI50 in data set [8] and in data set [9] were 60 µM and 20 µM, respectively.
In the case of `O=C1c2cc(Br)ccc2-n2c1nc1ccccc1c2=O`, the GI50 in data set [2] amounted to 0.7 µM; in data set [3], 0.8 µM; in [4], 0.7 µM; in data set [5], 0.15 µM; in [6] it was 3 µM; in [7] it was 5 µM. The GI50 in [8] was 0.4 µM; in data set [9], greater than 100 µM.
Consider `COc1cc2nc3n(c(=O)c2cc1OC)-c1ccccc1C3=O`, for which the GI50 in data set [2], in [3], in [4], in data set [5], in [6] and in data set [7] was greater than 100 µM throughout. Moreover, the GI50 in [8] and in data set [9] was greater than 100 µM each time.
In the case of `CCCCC1(O)c2ccccc2-n2c1nc1ccccc1c2=O` (stereo unspecified), the GI50 in [2], in data set [3], in [4], in data set [5], in data set [6] and in data set [7] was greater than 100 µM each time. Moreover, the GI50 in data set [8] and in [9] was greater than 100 µM in each case.
In data set [1], `CN(C)CCCO/N=C1\c2cc([N+](=O)[O-])ccc2-n2c1nc1ccccc1c2=O` came in with a bioavailability of 76%. The GI50 was 4 µM in data set [2]; 0.4 µM in data set [3]; 0.4 µM in [4]; 2 µM in data set [5]; 0.09 µM in data set [6]; 0.6 µM in [7]. For the same molecule, the GI50 in [8] is 0.5 µM; in data set [9] it was 2.5 µM. Further, the “Optimum T/C” value in data set [12] is 23%. Moreover, the “Max mean weight loss” value in data set [13] is on record as 14%.
